Data set [1] addresses T1, TG2 (Homo sapiens, UniProt P21980).
T1 sequence (P21980 1-687): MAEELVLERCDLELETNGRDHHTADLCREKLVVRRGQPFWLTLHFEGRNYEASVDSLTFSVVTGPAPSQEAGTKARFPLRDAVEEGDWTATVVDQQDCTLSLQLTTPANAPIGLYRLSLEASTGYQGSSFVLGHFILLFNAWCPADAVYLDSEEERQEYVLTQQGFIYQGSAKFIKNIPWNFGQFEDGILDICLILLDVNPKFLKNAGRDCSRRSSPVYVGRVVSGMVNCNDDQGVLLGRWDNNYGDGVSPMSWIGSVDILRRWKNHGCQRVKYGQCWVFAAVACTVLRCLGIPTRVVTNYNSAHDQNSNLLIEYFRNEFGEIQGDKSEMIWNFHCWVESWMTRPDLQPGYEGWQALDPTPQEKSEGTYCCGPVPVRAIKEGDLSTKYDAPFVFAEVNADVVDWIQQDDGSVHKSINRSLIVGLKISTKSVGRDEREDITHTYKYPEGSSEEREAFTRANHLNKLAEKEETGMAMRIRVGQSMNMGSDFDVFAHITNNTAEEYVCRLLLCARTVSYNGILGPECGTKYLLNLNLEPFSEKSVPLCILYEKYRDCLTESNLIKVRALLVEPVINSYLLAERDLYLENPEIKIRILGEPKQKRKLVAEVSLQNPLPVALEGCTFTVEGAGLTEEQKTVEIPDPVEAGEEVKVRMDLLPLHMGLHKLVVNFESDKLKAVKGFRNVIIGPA
The data set is described as follows: In vitro GTP binding assay after inhibition of hTG2 (BODIPY GTP-γ-S). To be noted: inhibitor 2×KI, 30 min; 3 μM GTP-γ-S FL BODIPY. The method, then: In vitro GTP binding assay. GTP binding was measured using a method similar to that reported previously (McEwen, D. P. et al., Anal. Biochem. (2001), 291 (1): 109-117). […] The buffer was then exchanged to 100 mM MOPS (pH=7.0), 1 mM EGTA and 5 mM MgCl2 to remove calcium using a 10-kDa molecular weight cut off membrane. The fluorescent GTP analog was then added to give a final concentration of 3.0 μM and fluorescence was then measured on a microplate reader after 10 minutes of incubation (Ex/Em: 490/520 nm).

Data set [2] deals with T1, TG2. Nature of the data set: Colorimetric transamidase activity assay (AL5 substrate), hTG2. In kind it is biochemical. The conditions noted are these: Table 7; for kinact: read-out: kinact (converted); for kinact/KI: read-out: kinact/KI (10^3M^−1 min^−1).
Experimental: In Vitro Assays. Colorimetric transamidase activity assay. The activities of hTG1, hTG2 and hTG6 were measured via a colorimetric assay using the chromogenic substrate Cbz-Glu(γ-p-nitrophenyl ester)Gly (AL5). The assay was conducted at 25° C. in 100 mM MOPS buffer (pH 6.5) containing 3.0 mM CaCl2 and 50 μM EDTA. […] A stock solution of AL5 was prepared in DMSO such that the final concentration of this co-solvent was constant at 2.5% v/v. Stock solutions of the inhibitors were made in the buffer system previously described. The reaction was initiated with the addition of 40-60 mU/mL of the respective enzyme (0.10 μM hTG1, 0.25 μM hTG2 or 0.32 μM hTG6). Product formation was monitored at 405 nm in a polystyrene 96-well microplate using a BioTek Synergy 4 plate reader. […] Observed first-order rate constants of inactivation (kobs) were determined from non-linear regression fit to a mono-exponential model (Equation 1) of the observed absorbance of the enzymatic hydrolysis product, p-nitrophenolate (pNP). […] Experiments were done in triplicate and variation between repeats was less than 30%.
The target in data set [3] is T1, TG2. The data set is described as follows: Kinetic inactivation of purified recombinant human TG2, continuous spectrophotometric activity assay (Examples 3, 10). Type of data set: biochemical. Details: made in house. To be noted: Table 4; for kinact/KI: read-out: kinact/Ki (μM^−1 min^−1), for ^a no saturation observed, efficiency obtained from initial slope. How it is done:
Kinetic studies were carried out in vitro, using purified recombinant human TG2 (Roy, I. et al., Protein Expr. Purif. 87: 41-46, 2013) and a direct, continuous spectrophotometric activity assay (Leblanc, A. et al., Biochemistry 40: 8335-8342, 2001).
Kinetics. Kinetic runs were performed at 25° C. in 100 mM MOPS buffer (pH 7.0) containing 3 mM CaCl2 and 50 μM EDTA. […] Stock solutions of the substrate and inhibitors were prepared in DMF such that the final concentration of this co-solvent was constant at 10% v/v. Reactions were initiated with the addition of enzyme with an activity of approximately 0.05 U/mL. Kinetic evaluation was carried out by the method of Stone and Hofsteenge (Stone, S. R. and Hofsteenge, J., Biochem. J. 230: 497-502, 1985). […] Observed first-order rate constants of inactivation were determined from non-linear regression, to a mono-exponential model. These rate constants were in turn fit to equation 1 by non-linear regression, providing the kinetic parameters
Kinetic parameters were determined as described above.

Data set [4] deals with TG2 fusion protein mCer-TG2-YFP. Nature of the data set: Fluorescence lifetime imaging (FLIM) of mCer-TG2-YFP conformation, SCC-13 cells. In kind it is cell-based, human. The conditions noted are these: 10 μM A23187, 24 h; control 2.94 ns. How it is done:
We monitored the impact of each inhibitor on intracellular TG2 structure using FLIM (Fluorescence Lifetime Imaging Microscopy). FLIM is a quantitative method of assessing fluorescence lifetime that measures energy transfer between donor and accept probes Fluorescence lifetime is measured in nanoseconds and a short lifetime correlates with close contact between probes (FIG. 29B). An advantage of this method is that fluorescent lifetimes are independent of probe concentration. In the present experiments, we expressed in cells a TG2 fusion protein in which the donor probe (mCER) is fused to the N-terminus and the acceptor probe (YFP) at the C-terminus (FIG. 29B). mCER and YFP comprise an ideal donor/acceptor pair; the donor probe is excited by laser illumination and energy transfer to the acceptor is monitored. The fluorescent lifetime is shorter when TG2 is in the closed conformation which brings mCER and YFP close together. SCC-13 cells were electroporated with empty vector, mCER-TG2 or mCER-TG2-YFP.
Fluorescence lifetime imaging. Fluorescence lifetime images were acquired using FLIM system (Alba 5 from ISS). […] Emission was observed through bandpass filter 480/35 nm (Chroma Technology) and detected by a photomultiplier H7422-40 (Hamamatsu). FLIM data were acquired using time-domain modality (SPC-830 TCSPC module from Becker and Hickl GmbH). […] To account for intensity heterogeneity within single intensity images, two to five consecutive scans were acquired and summed to build FLIM intensity image for lifetime analysis. […] FLIM data were analyzed using VistaVision Suite software (Vista v.213 from ISS). Lifetime images were generated by fitting data using single exponential intensity decay model. Intensity threshold for lifetime analysis was set of at least 3-fold above the intensity of dim cells and fitting procedure was performed for binned pixels at level of 3 (7×7 pixels). Lifetime distribution within image is represented with histogram showing pixel frequency of specific lifetime. The average lifetime values with standard deviations were calculated based on all processed pixels in lifetime image. FRET values were calculated according to the formula ET=1−(τDA/τD), where τD is the lifetime of donor (mCer-TG2) and τDA is the lifetime of donor-acceptor pair (mCer-TG2—YFP).

Another data set relates to SCC-13 cells. The data set is described as follows: Spheroid formation / survival assay, SCC-13 cells (ECS cells). The conditions noted are these: for spheroid formation with kinase inhibitor: PF-573228 10 μM, 6 d. Type of data set: cell-based, human. How it is done:
Spheroid formation assay. Cells, maintained as monolayer cultures in growth medium consisting of DMEM (Invitrogen, Frederick, Md.) supplemented with 4.5 mg/ml D-glucose, […] L-glutamine, […] sodium pyruvate, and 5% fetal calf serum, were harvested, collected by centrifugation, and resuspended in spheroid medium comprising DMEM/F12 (1:1) (DMT-10-090-CV, Mediatech Inc., Manassas, Va.) supplemented with 2% B27 serum-free supplement (17504-044, Invitrogen, Frederick, Md.), 20 ng/ml EGF (E4269, Sigma, St. Louis, Mo.), 0.4% bovine serum albumin (B4287, Sigma) and 4 μg/ml insulin (19278 Sigma, St. Louis, Mo.). The cells (40,000) were plated in 9.6 cm^2 wells in Costar six well ultra-low attachment cluster dishes (4371, Corning, Tewksbury, Mass.). Spheroid size and number was monitored with time in culture as previously described (Adhikary, G. et al., PLoS One 8:e84324, 2013).
Spheroid formation assay. Spheroid formation assays were exactly as outlined previously (Adhikary, G. et al., PLoS ONE 8:e84324, 2013), except that the spheroids were grown in six well ultra-low attachment Costar cluster dishes (4371, Corning, Tewksbury, Mass.).
Spheroid formation assay. Spheroid formation assays were as reported previously (Adhikary, G. et al., PLoS One 8:e84324, 2013), except that the spheroids were grown in 6-well ultralow attachment Costar cluster dishes (Corning).

Data set [5] concerns glioblastoma multiforme (GBM) cell lines. The conditions noted are these: cited from earlier work.
A further data set has as its system EGFR. The conditions noted are these: cited from earlier work; for EGFR levels: U87, but not T98G cells, 24 hrs.
A further data set concerns the target FAK kinase (Homo sapiens, UniProt Q05397).

Here are results for ten compounds from US10894777B2, “TG2 inhibitor piperazine compounds and uses thereof” (UNIVERSITY OF OTTAWA, priority 2016, dated 2021).

Non-standard residues stand in square brackets, D forms with d. Residues, ends and D or L forms follow the SMILES beside them. *: point of attachment. DON = [N-]=[N+]=CC(=O)CC[C@H](N)C(=O)O; Cbz = O=C(OCc1ccccc1)*

FAK kinase, sequence (Q05397 whole entry): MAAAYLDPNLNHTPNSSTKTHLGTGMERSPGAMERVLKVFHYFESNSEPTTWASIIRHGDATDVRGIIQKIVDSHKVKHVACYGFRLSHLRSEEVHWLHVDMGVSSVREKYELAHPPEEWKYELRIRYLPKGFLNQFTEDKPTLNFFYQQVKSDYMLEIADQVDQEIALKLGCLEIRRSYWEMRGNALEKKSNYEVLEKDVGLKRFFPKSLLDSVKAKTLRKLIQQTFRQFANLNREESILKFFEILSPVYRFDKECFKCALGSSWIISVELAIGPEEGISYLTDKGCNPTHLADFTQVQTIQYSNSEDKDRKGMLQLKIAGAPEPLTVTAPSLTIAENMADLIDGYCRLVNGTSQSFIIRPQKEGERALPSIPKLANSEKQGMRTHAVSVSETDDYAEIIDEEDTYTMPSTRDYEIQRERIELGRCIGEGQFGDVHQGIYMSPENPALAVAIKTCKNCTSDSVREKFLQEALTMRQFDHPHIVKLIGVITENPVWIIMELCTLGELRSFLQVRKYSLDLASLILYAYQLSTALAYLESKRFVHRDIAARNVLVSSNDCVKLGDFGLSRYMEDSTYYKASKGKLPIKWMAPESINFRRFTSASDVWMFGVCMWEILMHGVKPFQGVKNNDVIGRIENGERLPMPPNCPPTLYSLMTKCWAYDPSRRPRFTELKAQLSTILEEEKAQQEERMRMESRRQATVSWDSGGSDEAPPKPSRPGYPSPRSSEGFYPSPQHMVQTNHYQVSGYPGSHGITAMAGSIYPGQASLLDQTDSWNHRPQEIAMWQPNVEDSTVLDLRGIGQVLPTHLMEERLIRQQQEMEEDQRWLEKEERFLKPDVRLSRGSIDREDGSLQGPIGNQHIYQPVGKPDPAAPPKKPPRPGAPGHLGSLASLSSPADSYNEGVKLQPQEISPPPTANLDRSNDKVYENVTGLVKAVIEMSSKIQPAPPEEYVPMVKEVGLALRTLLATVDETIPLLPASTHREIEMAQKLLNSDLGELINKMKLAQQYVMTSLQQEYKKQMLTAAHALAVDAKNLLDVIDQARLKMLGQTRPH
Experimental for FAK kinase: SCC-13 cells (40,000 per well) were grown in spheroid medium in attached (monolayer) or non-attached (spheroid, ECS cell). Cells were collected after 10 d and lysates were prepared for immunoblot. In (B), SCC-13 cells spheroid were grown for 8 d and extracts were immunoprecipitated as indicated prior to immunoblot. […] Cells were grown in spheroid medium in monolayer culture for 10 d prior to collection of lysates for immunoblot. […] In (J), (K), and (L), cells were double-electroporated with indicated siRNA and 24 h later plated for spheroid formation in the presence of the indicated inhibitor. […] The plotted values are mean±SEM and asterisks indicate significant change compared to control, n=3, p<0.005.
Immunoblot. Equivalent amounts of protein were electrophoresed on denaturing and reducing 10% polyacrylamide gels and transferred to nitrocellulose membrane. […] Secondary antibody binding was visualized using ECL Prime (Amersham) chemiluminescence detection technology.

Consider `C=CC(=O)NCCCC[C@H](NC(=O)OCc1ccccc1)C(=O)N1CCN(C(=O)c2cccc3ccccc23)CC1` [AA9, (S)-benzyl (1-(4-(1-naphthoyl)piperazin-1-yl)-6-acrylamido-1-oxohexan-2-yl)carbamate], for which the “GTP binding of hTG2 after incubation with inhibitor” value on TG2 [1] is listed as “abolish GTP binding nearly completely”.
`C=CC(=O)NCCCC[C@H](NC(=O)OCc1ccccc1)C(=O)N1CCN(S(=O)(=O)c2ccc3ccccc3c2)CC1` [Compound 129, (S)-benzyl (6-acrylamido-1-(4-(naphthalen-2-ylsulfonyl)piperazin-1-yl)-1-oxohexan-2-yl)-carbamate] had a melting point of 65 to 66 °C. Also, at TG2 [2], the maximal inactivation rate constant (kinact) was 0.00633 s⁻¹ and the kinact/KI is 955 M⁻¹ s⁻¹. For the same compound, on TG2 [3], the kinact is 0.00643 s⁻¹ and the kinact/KI was 2500 M⁻¹ s⁻¹.
The matching figures for `C=CC(=O)NCCCC[C@H](NC(=O)OCc1ccccc1)C(=O)N1CCN(S(=O)(=O)Cc2ccccc2)CC1` [Compound 131, (S)-benzyl (6-acrylamido-1-(4-(benzylsulfonyl)piperazin-1-yl)-1-oxohexan-2-yl)carbamate]: 50 to 52 °C, 0.00783 s⁻¹, 582 M⁻¹ s⁻¹, 0.00907 s⁻¹ and 1900 M⁻¹ s⁻¹.
The matching figures for `C=CC(=O)NCCCC[C@H](NC(=O)OCc1ccccc1)C(=O)N1CCN(S(=O)(=O)C(C)C)CC1` [Compound 133, (S)-benzyl(6-acrylamido-1-(4-(isopropylsulfonyl)piperazin-1-yl)-1-oxohexan-2-yl)carbamate]: 48 to 49 °C, 0.00833 s⁻¹, 912 M⁻¹ s⁻¹, 0.0115 s⁻¹ and 2800 M⁻¹ s⁻¹.
Consider `CNc1ccc2oc(C[C@H]3O[C@@]4(CC[C@H]3C)O[C@H]([C@H](C)C(=O)c3ccc[nH]3)[C@H](C)C[C@H]4C)nc2c1C(=O)O` [Compound A23187, reference compound], for which, in data set [4], the “fluorescence lifetime of mCer-TG2-YFP” value is given as ~3.1 ns.
Regarding `NCCCCCNC(=S)Nc1ccc2c(c1)C(=O)OC21c2ccc(O)cc2Oc2cc(O)ccc21` [FC, fluorescein cadaverine, reference compound], the “spheroid number, pre-formed spheroids” value in the data set on SCC-13 cells (spheroids grown for 8 days, then treated) is “reduced spheroid number”.
On to `CN(C)c1cccc2c(S(=O)(=O)NCCCCCN)cccc12` [MDC, monodansylcadaverine], for which the “proliferation of GBM cell lines” value in [5] is reported as “reduce proliferation in two out of three glioblastoma multiforme (GBM) cell lines tested”. For the same compound, the EGFR levels entry with EGFR is “reduced the levels of EGFR”. Also, the “EGFR phosphorylation in response to EGF” value in the data set with EGFR (U87 cells, 30 min pretreatment) is recorded as “greatly reduced the extent of EGFR phosphorylation”.
With `CS(=O)(=O)c1cccc(CNc2nc(Nc3ccc4c(c3)CCC(=O)N4)ncc2C(F)(F)F)c1` [PF-573228, reference compound], the “spheroid formation with kinase inhibitor” value in the data set on SCC-13 cells is reported as “markedly reduced spheroid formation”. For the same compound, the FAK kinase activity entry at FAK kinase is reported as “reduced FAK kinase activity”.
Take `CC(C)(C)n1nc(-c2ccc(Cl)cc2)c2c(N)ncnc21` [PP2, reference compound]: the “spheroid formation with kinase inhibitor” value in the data set with SCC-13 cells is on record as “suppressed spheroid formation”.
On to `COC(=O)[C@H](CC(C)C)NC(=O)[C@@H]1CCCN1C(=O)[C@@H](NC(=O)[C@H](CCC(=O)C=[N+]=[N-])NC(=O)OCc1ccccc1)C(C)C` [Z-DON] (Cbz-[DON]VPL-OMe), for which the “proliferation of GBM cell lines” value in data set [5] is reported as “reduce proliferation in two out of three glioblastoma multiforme (GBM) cell lines tested”. In the data set with EGFR, the EGFR levels result is listed as “reduced the levels of EGFR”.

In general, kinact refers to the rate constant of inactivation at saturating inhibitor. As usually defined, the melting point is the temperature of the solid-liquid transition.
